Data from US20100035311A1, “METHOD AND COMPOSITION FOR ENZYME STORAGE” (priority 2006, published 2010).
Where “and” joins values, the source holds several entries; their conditions need not be identical. Identical values can stand only once. Like-named read-outs stand apart in the source and are kept apart here.

Experiments:
[1] = tested on: Medicago truncatula hydroperoxide lyase CYP74C3 (HPLF), recombinant, wild type, N-terminal histidine-tagged; conditions: for Km / kcat: pH 6.5, 25° C.; for Km / affinity, fold change on detergent removal (Km higher) / kcat, fold difference (detergent-buffer higher than detergent-free): detergent-buffer vs detergent-free; for catalytic efficiency (kcat/Km) of detergent-free enzyme as % of enzyme purified without detergent removal: detergent-free vs detergent-buffer; for kcat as % of kcat with 13α-HPOT: purified in detergent-buffer
CYP74C3 [2] = conditions: cited from earlier work
CYP74A1 [3] = target: T1, CYP74A1 (Arabidopsis thaliana, UniProt Q96242)
T1 sequence (Q96242 with tags, fused parts or gaps): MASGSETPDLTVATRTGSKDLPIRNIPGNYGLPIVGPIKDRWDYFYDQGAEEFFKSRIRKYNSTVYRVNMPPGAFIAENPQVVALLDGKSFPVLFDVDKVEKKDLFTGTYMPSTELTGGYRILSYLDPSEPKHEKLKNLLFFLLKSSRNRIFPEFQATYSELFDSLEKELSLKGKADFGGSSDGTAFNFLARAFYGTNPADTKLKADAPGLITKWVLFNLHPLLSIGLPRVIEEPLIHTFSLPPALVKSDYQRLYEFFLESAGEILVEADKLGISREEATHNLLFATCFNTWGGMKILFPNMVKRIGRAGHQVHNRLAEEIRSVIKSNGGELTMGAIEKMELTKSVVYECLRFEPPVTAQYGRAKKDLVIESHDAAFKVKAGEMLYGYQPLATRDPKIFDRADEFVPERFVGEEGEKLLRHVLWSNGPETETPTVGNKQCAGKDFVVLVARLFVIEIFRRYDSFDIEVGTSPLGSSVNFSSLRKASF

CYP74C3 [4] = tested on: CYP74C3
Protocol: (a) UV/Visible spectra of ligand-bound forms of oxidised native CYP74C3 (2 μM, ? ); KCN (100 mM, ——); imidazole (50 mM, ---------); DMPhP (250 mM, —[…] […]—). The spectrum of dithionite (50 mM) reduced CYP74C3 (2 μM) before ([…]) and after (—[…]—) reaction with CO (˜1 mM) are also shown. […] (c) Stopped-flow diode array spectral changes over a period of 200 s for cyanide (100 mM) binding to native oxidised CYP74C3 (2 μM).
Spectra and steady-state kinetic analyses were performed using a dual beam scanning Shimadzu UV/Visible spectrophotometer (Model UV-1601, Shimadzu, Milton Keynes, U.K.). […] Stopped flow-UV/Visible data were analysed with the KineticAsyst 3.0 software package (Hi-Tech Scientific). Ligand-binding studies were carried out with both the native oxidised and the dithionite ion reduced forms of CYP74C3.

AOS = conditions: ref [23′]; cited from earlier work
CYP74C3 [5] = assay type: biochemical, Medicago truncatula
Protocol: Protein content was estimated using the Bradford or bicinchoninic acid (BCA) assay (Pierce, Perbio Science, Cramlington, Northumberland, U.K.) according to the manufacturer's instructions. Bovine serum albumin was used as a standard. […] Substrate specificity was determined by comparing kcat/Km.

CYP74C3 [6] = tested on: CYP74C3; remark: listed apart in the source
Protocol: (a) Dose response curve for reactivation of detergent-free CYP74C3 with the detergent Emulphogene. Detergent-free CYP74C3 was incubated with an equal volume of 100 mM sodium phosphate buffer, pH 6.5 or containing detergent (0.01-10.24 mM Emulphogene) for 15 min on ice. Samples (1.2 pmol) were then assayed for HPL activity in the standard assay with 20 μM 13α-HPOT; (b) Plot of predicted micelle concentration versus activity for calculation of Kd for Emulphogene binding and (c) Fit of velocity-substrate curves to one-site saturation model in SigmaPlot for detergent-free CYP74C3 (1.0 pmol, ∘---∘), CYP74C3 purified in detergent-buffer (0.5 pmol, ∘—∘) and detergent-free CYP74C3 after reactivation with 5 mM Emulphogene (0.5 pmol, ▾—▾). […] Error bars are the means±standard errors of at least six determinations on two different enzyme preparations.
Substrate specificity was determined by comparing kcat/Km.

CYP74A1 [7] = target: T1, CYP74A1; conditions: pH 6.5
[8] = assay type: physicochemical
Source text: The following table provides a summary enzyme stability studies conducted on HPL and AOS enzymes, subjected to either freeze drying or speedvac drying, in the presence or absence of detergent. What is reported here is the degree to which enzyme activity is lost based on the storage condition. […] Subsequent re-hydration of each dried enzyme and spectroscopic analysis was used to determine the stability of the thus-treated enzymes. FIG. 11 provides stability over time information for the thus stored enzymes showing stability for at least ten weeks. UV/Vis spectra of detergent-free preparations of CYP74C3 (HPLF), CYP74A1 (AOS) and Pepper HPL were determined before and after freeze drying, as well as before and after drying in a speedvac. […] The UV/Vis spectra of preparations of CYP74C3 (HPLF), CYP74A1 (AOS) and Pepper HPL in the detergent triton before and after freeze drying were further determined. The UV/Vis spectra of these preparations were used to determine the percentage loss of protein resulting from freeze drying, or drying in a speedvac and the results are summarised in the following table.

[9] = +Detergent (purified in detergent-buffer)
[10] = Reactivated with 5 mM Emulphogene
[11] = monomer-micelle complex vs detergent-free monomer

Molecule: CCCCC/C=C\C=C\[C@H](CCCCCCCC(=O)O)OO [9α-HPOD]
- Substrate specificity (% 13α-HPOT), from kcat/Km [1, 9]: 8%
- kcat/Km [1, 9]: 1.29e+07 M⁻¹ s⁻¹
- Km [1, 9]: 15.3 ± 1.4 µM
- kcat [1, 9]: 197 ± 6 s⁻¹
- Substrate specificity (% 13α-HPOT), from kcat/Km ([1]; Detergent-free): 16%
- kcat/Km ([1]; Detergent-free): 500000 M⁻¹ s⁻¹
- Km ([1]; Detergent-free): 84.5 ± 10.1 µM
- kcat ([1]; Detergent-free): 44 ± 2 s⁻¹
- Substrate specificity (% 13α-HPOT), from kcat/Km [1, 10]: 5%
- kcat/Km [1, 10]: 7.2e+06 M⁻¹ s⁻¹
- Km [1, 10]: 25.8 ± 2.2 µM
- kcat [1, 10]: 185 ± 7 s⁻¹
- Km / affinity, fold change on detergent removal (Km higher) [1]: 6 fold
- kcat, fold difference (detergent-buffer higher than detergent-free) [1]: 5 fold
- catalytic efficiency (kcat/Km) of detergent-free enzyme as % of enzyme purified without detergent removal [1]: 4%
- kcat as % of kcat with 13α-HPOT [1]: 38%

Molecule: CC/C=C\C/C=C\C=C\[C@H](CCCCCCCC(=O)O)OO [9α-HPOT, 9-S-hydroperoxy-10E,12Z,15Z-octadecatrienoic acid]
- Substrate specificity (% 13α-HPOT), from kcat/Km [1, 9]: 0.4%
- kcat/Km [1, 9]: 600000 M⁻¹ s⁻¹
- Km [1, 9]: 39.1 ± 7.2 µM
- kcat [1, 9]: 24 ± 2 s⁻¹
- Substrate specificity (% 13α-HPOT), from kcat/Km ([1]; Detergent-free): 3%
- kcat/Km ([1]; Detergent-free): 100000 M⁻¹ s⁻¹
- Km ([1]; Detergent-free): 81.6 ± 9.7 µM
- kcat ([1]; Detergent-free): 8 ± 0 s⁻¹
- Substrate specificity (% 13α-HPOT), from kcat/Km [1, 10]: 0.4%
- kcat/Km [1, 10]: 600000 M⁻¹ s⁻¹
- Km [1, 10]: 51.7 ± 4.4 µM
- kcat [1, 10]: 30 ± 1 s⁻¹
- Km / affinity, fold change on detergent removal (Km higher) [1]: 2 fold
- kcat, fold difference (detergent-buffer higher than detergent-free) [1]: 3 fold
- catalytic efficiency (kcat/Km) of detergent-free enzyme as % of enzyme purified without detergent removal [1]: 17%
- kcat as % of kcat with 13α-HPOT [1]: 5%

Molecule: CCCCC[C@@H](/C=C/C=C\CCCCCCCC(=O)O)OO [13α-HPOD, 13-S-hydroperoxyoctadeca-9Z, 11 E-dienoic acid]
- Substrate specificity (% 13α-HPOT), from kcat/Km [1, 9]: 23% and 19%
- kcat/Km [1, 9]: 3.5e+07 M⁻¹ s⁻¹
- Km [1, 9]: 10.3 ± 2.1 µM
- kcat [1, 9]: 361 ± 19 s⁻¹
- Substrate specificity (% 13α-HPOT), from kcat/Km ([1]; Detergent-free): 19%
- kcat/Km ([1]; Detergent-free): 600000 M⁻¹ s⁻¹
- Km ([1]; Detergent-free): 102 ± 11.8 µM
- kcat ([1]; Detergent-free): 59 ± 3 s⁻¹
- Substrate specificity (% 13α-HPOT), from kcat/Km [1, 10]: 22%
- kcat/Km [1, 10]: 3.35e+07 M⁻¹ s⁻¹
- Km [1, 10]: 14.7 ± 1.9 µM
- kcat [1, 10]: 493 ± 17 s⁻¹
- Km / affinity, fold change on detergent removal (Km higher) [1]: 10 fold
- kcat, fold difference (detergent-buffer higher than detergent-free) [1]: 6 fold
- catalytic efficiency (kcat/Km) of detergent-free enzyme as % of enzyme purified without detergent removal [1]: 2%
- kcat as % of kcat with 13α-HPOT [1]: 70%

Molecule: CC/C=C\C[C@@H](/C=C/C=C\CCCCCCCC(=O)O)OO [13α-HPOT, 13-S-hydroperoxy-9Z,11E,15Z-octadecatrienoic acid]
- fold increase in kcat/Km upon micelle binding (CYP74C3 [2]): ~50 fold
- Substrate specificity (% 13α-HPOT), from kcat/Km [1, 9]: 100%
- kcat/Km [1, 9]: 1.558e+08 M⁻¹ s⁻¹
- Km [1, 9]: 3.3 µM
- kcat [1, 9]: 514 ± 11 s⁻¹
- Substrate specificity (% 13α-HPOT), from kcat/Km ([1]; Detergent-free): 100%
- kcat/Km ([1]; Detergent-free): 3.2e+06 M⁻¹ s⁻¹
- Km ([1]; Detergent-free): 20.9 ± 1.7 µM
- kcat ([1]; Detergent-free): 68 ± 5 s⁻¹
- Substrate specificity (% 13α-HPOT), from kcat/Km [1, 10]: 100%
- kcat/Km [1, 10]: 1.493e+08 M⁻¹ s⁻¹
- Km [1, 10]: 4.4 ± 0.6 µM
- Km / affinity, fold change on detergent removal (Km higher) [1]: 6 fold
- kcat, fold difference (detergent-buffer higher than detergent-free) [1]: approximately 8 fold
- catalytic efficiency (kcat/Km) of detergent-free enzyme as % of enzyme purified without detergent removal [1]: 2%
- CYP74C3, fold faster than CYP74A1 (kcat/Km) ([1]; in detergent micelles, CYP74C3 vs CYP74A1): 2.6 fold
- fold increase in kcat/Km upon micelle binding ([1]; micelle-bound vs detergent-free): ~50 fold
- Km of monomer-micelle complex, fold lower than detergent-free monomer [1, 11]: 5-6 fold
- kcat of monomer-micelle complex, fold higher than detergent-free monomer [1, 11]: 8-10 fold
- kcat/Km ([1]; with detergent): up to 1.6×10^8 M^−1. s^−1
- fold increase in kcat/Km after reactivation with detergent micelles (CYP74A1 [3]): ~50 fold

Molecule: [N-]=[N+]=[N-] [Azide, azide]
- binding of ligand to CYP74C3 (CYP74C3 [4]): shown to bind
- Spin state of the haem iron after ligand or detergent binding (CYP74C3 [4]; pH 6.5): Mixture

Molecule: c1ccc2[nH]cnc2c1 [BI, benzimidazole]
- binding of ligand to CYP74C3 (CYP74C3 [4]): shown to bind

Molecule: [C-]#[O+] [CO, Carbon monoxide]
- Spin state of the haem iron after ligand or detergent binding (CYP74C3 [4]; pH 6.5): Low

Molecule: c1c[nH]cn1 [Imidazole, imidazole]
- inhibition of AOS (AOS): potent inhibitor
- binding of ligand to CYP74C3 (CYP74C3 [4]): shown to bind
- k1 of biphasic ligand binding (CYP74C3 [4]; pH 6.5): 2.5±0.1×10^−2 s^−1
- k2 of biphasic ligand binding (CYP74C3 [4]; pH 6.5): 0.33±0.03×10^−2 s^−1
- activity of CYP74C3 after elution from IMAC with the ligand (CYP74C3 [5]): virtually inactive enzyme

Molecule: N#C[S-].[K+] [KCNS, potassium thiocyanate]
- binding of ligand to CYP74C3 (CYP74C3 [4]): shown to bind
- Spin state of the haem iron after ligand or detergent binding (CYP74C3 [4]; pH 6.5): Mixture

Molecule: O=O [O2, dioxygen]
- binding of ligand to CYP74C3 (CYP74C3 [4]): shown to bind

Molecule: c1ccncc1 [Pyridine, pyridine]
- binding of ligand to CYP74C3 (CYP74C3 [4]): shown to bind
- Spin state of the haem iron after ligand or detergent binding (CYP74C3 [4]; pH 6.5): Low

Molecule: c1cscn1 [Thiazole, thiazole]
- binding of ligand to CYP74C3 (CYP74C3 [4]): shown to bind

Molecule: polyoxyethylene 10 tridecyl ether [Emulphogene]
- Emulphogene concentration at which detergent-free CYP74C3 could be reactivated (CYP74C3 [6]): exceeding 2.6 mM
- Kd (CYP74C3 [6]): 6.9 µM
- reactivation of detergent-free CYP74C3 (CYP74C3 [6]): No reactivation
- Kd (CYP74A1 [7]): 10.7 ± 1.7 µM
- Spin state of the haem iron after ligand or detergent binding (CYP74C3 [4]; pH 6.5): Low

B1: CYP74A1: recombinant allene oxide synthase (AOS) from Arabidopsis thaliana (protein, UniProt Q96242 34-518, looked up)
Allene oxide synthase, …: SGSETPDLTVATRTGSKDLPIRNIPGNYGLPIVGPIKDRWDYFYDQGAEEFFKSRIRKYNSTVYRVNMPPGAFIAENPQVVALLDGKSFPVLFDVDKVEKKDLFTGTYMPSTELTGGYRILSYLDPSEPKHEKLKNLLFFLLKSSRNRIFPEFQATYSELFDSLEKELSLKGKADFGGSSDGTAFNFLARAFYGTNPADTKLKADAPGLITKWVLFNLHPLLSIGLPRVIEEPLIHTFSLPPALVKSDYQRLYEFFLESAGEILVEADKLGISREEATHNLLFATCFNTWGGMKILFPNMVKRIGRAGHQVHNRLAEEIRSVIKSNGGELTMGAIEKMELTKSVVYECLRFEPPVTAQYGRAKKDLVIESHDAAFKVKAGEMLYGYQPLATRDPKIFDRADEFVPERFVGEEGEKLLRHVLWSNGPETETPTVGNKQCAGKDFVVLVARLFVIEIFRRYDSFDIEVGTSPLGSSVNFSSLRKASF
- Loss of active protein (%) ([8]; Freeze Drying, +Emulphogene (0.3% w/v)): 58.1%
- Loss of active protein (%) ([8]; Freeze Drying, +Triton X-100 (0.2% w/v)): 41.3%
- Loss of active protein (%) ([8]; Freeze Drying, Detergent-free): 2.3%
- Loss of active protein (%) ([8]; Speedvac Drying, +Emulphogene (0.3% w/v)): 83.1%
- Loss of active protein (%) ([8]; Speedvac Drying, Detergent-free): 17.6%
- fold increase in kcat/Km after reactivation with detergent micelles (CYP74A1 [3]): 48 fold
